Reference: patent publication US20220105053A1, “PHARMACEUTICAL COMPOSITION FOR PREVENTION OR TREATMENT OF ACIDOSIS” (HAIM BIO CO., LTD., priority 2018, published 2022)

Tested on: A549 cancer cells
Test: Lactic acid concentration-decreasing effect in A549 cell culture (lactate assay, luminescence, normalised to cell number)
Type: cell-based, human
Conditions: 50 μM candidate substance, 24 hours, compared with the positive control (50 μM sodium oxamate), average of 3 experiments
Protocol: To this end, first, A549 cancer cells (adenocarcinomic human alveolar basal epithelial cells, Cat #CCL-185) obtained from the American Type Culture Collection (ATCC) were cultured in RPMI 1640 culture medium containing 10% fetal bovine serum and 1% antibiotic-antimycotic agent under an environment at 37° C. and 5% CO2, and passages were performed every 3 days. Lactic acid is produced in large amounts when glycolysis is activated in hypoxia. Cancer cells, which are densely packed with cells, are very active in energy-consuming activities, and thus are known to produce lactic acid in large amounts.
The cells were seeded in 24-well plates at a concentration of 3×10^5 cells/well, and incubation was performed overnight. Then, each plate was treated with each of the candidate substances (at a concentration of 50 μM) as shown in Table 1 which had been dissolved in dimethyl sulfoxide (DMSO). Incubation was further performed for 24 hours. For the negative control for the candidate substances, no treatment was performed; and for the positive control, treatment with sodium oxamate, which is conventionally known as a therapeutic agent for lactic acidosis, was performed at the same concentration (50 μM) or the […] higher concentration (50 mM). Subsequently, 50 μl of the cell culture solution obtained by being diluted with Dulbecco's Phosphate-Buffered Saline (DPBS), and 50 μl of the lactate assay reaction buffer (Promega, Madison, Wis., USA) were mixed and the mixture was added in a 96-well plate. Reaction was allowed to proceed at room temperature for 1 hour. Then, luminescence was measured with a spectrophotometer (Synergy HTX Multi-Reader, BioTek). At the same time, the number of cells in each sample was measured with a cell viability analysis kit (Cell Counting Kit-8), and calculation was performed so that the lactic acid measurement value in each sample could be compared with that in the negative control for the same number of cells.

SMILES | lactic acid concentration-decreasing effect
Nc1c(O)cccc1C(=O)CC(N)C(=O)O (racemic) [3-hydroxy-DL-kynurenine, 3-Hydroxy-DL-kynurenine] | about 20%
C=C(OP(=O)([O-])O)C(=O)O.O.[Na+] [Phospho(enol)pyruvic acid monosodium salt hydrate] | about 15%
N.N.[Cl][Pt][Cl] [cis-diamminedichloridoplatinum, Cis-diamminedichloridoplatinum] | about 15%
CCN(CC)c1ccc(C=O)cc1 [diethylaminobenzaldehyde, Diethylaminobenzaldehyde] | about 20%
